Data reported in patent EP0402259A1, “Anthracyclines, process for their preparation and medicaments containing them” (LABORATOIRES HOECHST S.A., priority 1989, dated 1990).
Values after ≈ are worked out from the molar mass of the structure shown.

Experiments:
[1] = tested on: cellules tumorales L1210; test: Proliferation test (MTT reduction), L1210; type: cell-based; details: L1210, 72 h incubation; for IC50: Mus musculus, L1210, 72 h, read-out: CI50 TEST AU MTT L1210
Procedure: (§1) Les témoins consistent en cellules tumorales exposées à un milieu de culture. Quatre puits sont préparés pour chaque concentration en anthracycline et pour le témoin. Après 65 heures. 50 µl de MTT (2,5 mg/ml dans du PBS) sont ajoutés.
(§2) Le MTT sera réduit en présence de cellules vivantes en un colorant formazan rouge insoluble. Après 7 à 24 heures d'incubation supplémentaire (dépendant des cellules utilisées), le surnageant est enlevé. Le colorant formazan est solubilisé par l'addition de 100 ul de DMSO dans chaque puits, suivie d'une agitation douce.
(§3) L'extinction est mesurée pour chaque puits, à 492 nm (photomètre Multiscan 340 CC Fa. Flow).
(§4) Les résultats sont exprimés comme le rapport de l'extinction après incubation avec les anthracyclines sur l'extinction obtenue avec les témoins.

[2] = tested on: cellules tumorales HT29; test: Proliferation test (MTT reduction), HT29; type: cell-based; details: HT 29, 72 h incubation; for IC50: Homo sapiens, HT-29, 72 h, read-out: CI50 TEST AU MTT HT 29
Procedure: as §1, §2, §3, §4

[3] = tested on: cellules tumorales A549; test: Proliferation test (MTT reduction), A549; type: cell-based; details: A 549, 72 h incubation; for IC50: Homo sapiens, A549, 72 h, read-out: CI50 TEST AU MTT A 549
Procedure: as §1, §2, §3, §4

[4] = tested on: HT29; test: Xenograft (subrenal capsule assay), HT29 colon tumour; type: in vivo
[5] = tested on: A549; test: Xenograft (subrenal capsule assay), A549; type: in vivo
[6] = tested on: LXF; test: Xenograft (subrenal capsule assay), LXF lung tumour; type: in vivo; details: for Xénogreffes LXF: grades not defined
[7] = tested on: L1210; test: In vivo L1210 leukemia, survival time (T/C); design: species or system souris BDF1
Procedure: Un liquide d'ascite est prélevé dans des conditions aseptiques chez des souris DBA2 (femelle, 18 -20 g) le septième jours après l'implantation.
L'ascite est lavée trois fois avec du PBS, comptée et finalement diluée dans du PBS, de manière à obtenir 10^6 cellules/0,2 ml.
10^6 cellules dans 0,2 ml de PBS sont injectées dans le peritoine de souris DBA2 pour la propagation de la lignée cellulaire.
10^6 cellules dans 0,2 ml de PBS sont injectés intrapéritonéalement à des souris BDF1 (femelle 18 -20 g), 6 animauxigroupe sont utilisés pour chaque concentration de substance et pour le contrôle.
• a) les animaux sont pesés le premier jour et le cinquième jour après l'administration du médicament.
A partir du temps de survie moyen des groupes traités (MSTT) et des groupes contrôle (MSTc), l'effet antitumoral (T/C) est évalué en fonction de la formule suivante : [formula]

[8] = L1210 i.p. in BDF1 mice, schedule 3 i.v.

Structure (SMILES)	IC50 [1]	IC50 [2]	IC50 [3]	CI50 TEST AU MTT L1210 [1]	CI50 TEST AU MTT HT 29 [2]	Xénogreffes LXF [6]	dose optimale [7, 8]	CI50 TEST AU MTT A 549 [3]	other results
C[C@@H]1O[C@@H](O[C@H]2C[C@](O)(CO)Cc3c(O)c4c(c(O)c32)C(=O)c2ccccc2C4=O)C[C@H](O)[C@@H]1N1CCOCC1 [compound 14, (S)-cis-1-O-{4-morpholino-2,4,6-tridésoxy-α-L-lyxo-hexopyranosyl)-1,2,3,4,6,11-hexahydro-1,3,5,12-tétrahydroxy-3-hydroxyméthyl-6,11-naphtacène dione]	0.15 µg/mL (≈ 0.27 µM)	0.13 µg/mL (≈ 0.234 µM)	0.054 µg/mL (≈ 0.0972 µM)						
C[C@@H]1O[C@@H](O[C@H]2C[C@](O)(CO)Cc3c(O)c4c(c(O)c32)C(=O)c2ccccc2C4=O)C[C@H](O)[C@@H]1NC(=O)C(F)(F)F [compound 11]	0.015 µg/mL (≈ 0.0258 µM)	0.026 µg/mL (≈ 0.0447 µM)	0.011 µg/mL (≈ 0.0189 µM)						
C[C@@H]1O[C@@H](O[C@H]2C[C@](O)(CO)Cc3c(O)c4c(c(O)c32)C(=O)c2ccccc2C4=O)C[C@H](O)[C@@H]1N [Composé 13, chlorhydratede (S)-cis-1-O-(4-amino-2,4,6-trideoxy-α-L-lyxo-hexopyranosyl)-1,2.3.4,6.11-hexahydro-1,3,5,12-tétrahydroxy-3-hydroxyméthyl-6,11-naphtacène dione]				0,009 µg/ml	0,01 µg/ml	+ +	3,1 mg/kg/Inj.	0,009 µg/ml	activité sur tumeur du colon (HT29) ([4]; in words): à un moindre degré; activité sur la lignée cellulaire A549 ([5]; in words): à un moindre degré; activité sur tumeur du poumon (LXF) ([6]; in words): actif; T/C % ([7]; L1210 i.p. in BDF1 mice, schedule 3 i.v., at optimal dose, T/C above 125 % = significant antitumour effect): 133%; activité antitumorale ([7]; in words, at a dose about three times lower than that of doxorubicine): activité antitumorale non négligeable
C[C@@H]1O[C@@H](O[C@H]2C[C@](O)(CO)Cc3c(O)c4c(c(O)c32)C(=O)c2ccccc2C4=O)C[C@H](O)[C@@H]1N [compound 12, (S)-cis-1-O-{4 amino-2,4,6-trideoxy-α-L-lyxo-hexopyranosyl)-1,2,3,4,6,11-hexahydro-1,3,5,12-tétrahydroxy-3-hydroxyméthyl-6,11-naphtacène dione]				0,021 µg/ml	0,03 µg/ml			0,24 µg/ml	
C[C@@H]1O[C@@H](O[C@H]2C[C@](O)(CO)Cc3c(O)c4c(c(O)c32)C(=O)c2ccccc2C4=O)C[C@H](O)[C@@H]1N=[N+]=[N-] [compound 6]	0.13 µg/mL (≈ 0.254 µM)	0.46 µg/mL (≈ 0.899 µM)	0.24 µg/mL (≈ 0.469 µM)						
COc1cccc2c1C(=O)c1c(O)c3c(c(O)c1C2=O)C[C@@](O)(C(=O)CO)C[C@@H]3O[C@H]1C[C@H](N)[C@H](O)[C@H](C)O1 [doxorubicine, reference compound]						+ + +	8,1 mg/kg/Inj.		Xénogreffes HT29 ([4]; grades not defined): + +; Xénogreffes A549 ([5]; grades not defined): + +
